Test results: patent US6600069B2, “Benzene tricarboxylic acid derivatives as insulin receptor activators” (Telik, Inc., priority 2000, dated 2003)

Assays:
[1] = biological target: T1, β-kinase domain of the human insulin receptor (CKD) (Homo sapiens, UniProt P06213); assay: 32P-cytoplasmic kinase domain (CKD) autophosphorylation assay; assay type: biochemical; conditions: 32P incorporated into CKD band, 10 minutes at room temperature, 50 μM ATP; test concentration not given
T1 construct: The complete β-kinase domain of the human insulin receptor (CKD); made in house
T1 sequence (P06213 980-1382 limits assumed): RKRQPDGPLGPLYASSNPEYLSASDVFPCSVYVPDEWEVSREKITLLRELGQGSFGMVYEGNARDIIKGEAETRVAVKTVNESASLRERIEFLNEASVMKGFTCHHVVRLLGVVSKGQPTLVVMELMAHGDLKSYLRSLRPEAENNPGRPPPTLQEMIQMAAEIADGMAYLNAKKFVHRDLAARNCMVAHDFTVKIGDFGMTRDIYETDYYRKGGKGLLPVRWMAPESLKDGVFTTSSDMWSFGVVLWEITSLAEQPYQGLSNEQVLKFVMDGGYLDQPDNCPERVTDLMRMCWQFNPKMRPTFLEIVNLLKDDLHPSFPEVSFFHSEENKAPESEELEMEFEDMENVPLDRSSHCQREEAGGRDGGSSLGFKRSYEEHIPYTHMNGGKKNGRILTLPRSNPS
Experimental: ^32P-cytoplasmic Kinase Domain (CKD) Autophosphorylation Assay
The complete β-kinase domain of the human insulin receptor (CKD) was expressed in, and purified from, baculovirus. CKD (4.0 μg/ml), in a solution of 29 mM HEPES (pH 7.6), 0.05% Triton X-100, 10 mM MgCl2, 2 mM MnCl2 (50 μl final volume), was combined with 50 μM ATP, and 5 μCi ^32P-ATP (3000 Ci/mmol.). A test compound, or the vehicle (DMSO), was added to a final DMSO concentration of 1%. The mixture was incubated for 10 minutes at room temperature. The reaction was terminated by the addition of 10 μl of 200 mM EDTA. A 30 μl volume was removed, mixed with 5 μl of 6× Laemmeli sodium dodecyl sulfate (SDS) treatment buffer, and heated to 95° C. for 5 minutes. A 20 μl aliquot was then run on an SDS-PAGE gel. The radioactivity incorporated into the CKD band is quantified by phosphorimaging of the gel, or scintillation counting of the excised bands.
The potency of a compound for increasing phosphorylation is expressed as a percentage of the vehicle level.

[2] = system: 3T3 L1 fibroblasts differentiated to adipocytes; assay: Glucose transport activity (14C-2-deoxy-D-glucose uptake); assay type: cell-based; conditions: Mus musculus, 3T3-L1; concentration producing increase in glucose transport generally 150% of the vehicle control; insulin 5.6 nM; read-out: Glucose Transport EC (effective concentration)
Experimental: Glucose Transport Activity
3T3 L1 fibroblasts (ATCC) were grown in Dulbecco's modified Eagie's medium (DMEM) with 10% fetal bovine serum (FBS). The cells were plated at a density of 3×10^4 cells/well in 24-well plates. Two days after confluence was reached, the cells were treated for 3 days with […] isobutylmethylxanthine (IBMX), 1 μM dexamethasone, and 1.7 μM insulin. The cells were then transferred to DMEM with 10% fresh bovine serum with 1.7 μM insulin for 2 more days. The cells were maintained in DMEM with 10% FBS for an additional 4 days. Finally the cells were serum starved overnight in 0.1% bovine serum albumin (BSA) in DMEM prior to exposure to the test compounds.
The following day, the medium was replaced with 150 mM NaCl, 1.7 mM KCl, 0.9 mM CaCl2, K2HPO4 (pH 7.4) to which was added either the experimental compounds, or their vehicle (DMSO). Insulin or its vehicle (0.01% BSA) was diluted in the assay buffer (containing test compound or vehicle, respectively) to a final concentration of 5.6 nM. After incubation for 30 min at 37° C., 0.5 μCi/ml of ^14C-2-deoxy-D-glucose was added, and the incubation was continued for additional 30 min at 37° C. The cells were then washed 3 times with ice-cold PBS/20 mM glucose and lysed in 250 μl of lysis buffer (50 mM HEPES pH 7.6, 1% Triton X-100) for 30 min at room temperature. Radioactivity in the lysate was quantified by scintillation counting.
Once ^14C-2-deoxy-D-glucose is transported into the cell it is not released. Glucose transport is, therefore, proportional to the amount of radioactivity in the lysate. The concentration of compound necessary to produce an increase in glucose transport greater than the sum of the standard deviation of the vehicle control plus the largest standard deviation of a test sample (generally 150% of the vehicle control) was recorded as the EC (effective concentration) The results of the glucose transport activity assay are shown in Table 2,

| Compound | CKD phosphorylation (percentage of the vehicle level) [1] [%] | EC50 [2] [µM] |
| --- | --- | --- |
| O=C(O)c1cc(NC(=O)c2cc(C(=O)Nc3cc(C(=O)O)cc(C(=O)O)c3)cc(C(=O)Nc3cc(C(=O)O)cc(C(=O)O)c3)c2)cc(C(=O)O)c1 [Compound 21, 5-({3,5-bis[N-(3,5-dicarboxyphenyl)carbamoyl]phenyl}carbonylamino)benzene-1,3-dicarboxylic acid] | 97.8 | 3.2 |
| O=C(Nc1cccc(C(=O)O)c1C(=O)O)c1cc(C(=O)Nc2cccc(C(=O)O)c2C(=O)O)cc(C(=O)Nc2cccc(C(=O)O)c2C(=O)O)c1 [Compound 22, 3-({3,5-bis[N-(2,3-dicarboxyphenyl)carbamoyl]phenyl}carbonylamino)benzene-1,2-dicarboxylic acid] | 118.1 | 3.2 |
| COC(=O)c1ccccc1NC(=O)c1cc(C(=O)Nc2ccccc2C(=O)OC)cc(C(=O)Nc2ccccc2C(=O)OC)c1 [Compound 23, methyl 2-[(3,5-bis{N-[2-(methoxycarbonyl)phenyl]carbamoyl}phenyl)carbonyl-amino]benzoate] | 87.4 | 1.6 |
